Measured values as given in patent publication US20230263891A1, “SONOGENETIC STIMULATION OF CELLS EXPRESSING TRPA1” (Salk Institute for Biological Studies, priority 2020, published 2023).
Read-outs that look alike come from different tables or passages of the source.

Experiments:
Type in all cases: cell-based
[1] = tested on: mouse primary cortical neurons; assay: GCaMP6f calcium imaging of primary cortical neurons under ultrasound or AITC
hsTRPA1 [2] = molecular target: T1, hsTRPA1 (Homo sapiens, UniProt O75762); assay: Effect of agents on AITC-triggered GCaMP6f response of hsTRPA1-expressing HEK cells; details: AITC 33 μM; after incubation with agent; versus vehicle
T1 construct: HEK cells transfected with either full-length hsTRPA1 or channels containing deletions; porcine teschovirus-1 2A self-cleaving peptide (p2A) linking the channel to dTomato in a bicistronic vector (cleaved yes); host or cells: HEK 293T cells expressing human alpha-v beta-3 integrin and stably expressing GCaMP6f

hsTRPA1 [3] = molecular target: T1, hsTRPA1; assay: Effect of agents on ultrasound-evoked GCaMP6f response of hsTRPA1-expressing HEK cells; details: agent added 45 minutes before; HC-030031 40 μM, MCD 5 mM, nocodazole 5 μM, latrunculin A 1 μM, paclitaxel 600 nM; versus vehicle
[4] = tested on: Human Embryonic Kidney 293T (HEK) cells; assay: Ultrasound-evoked GCaMP6f calcium response of HEK cells transfected with candidate channels (screen and TRPA1 variants); details: transfected GCaMP6f HEK cells; 6.91 MHz; screen at 100 msecs, 1.5 MPa

T1 sequence (O75762 whole entry): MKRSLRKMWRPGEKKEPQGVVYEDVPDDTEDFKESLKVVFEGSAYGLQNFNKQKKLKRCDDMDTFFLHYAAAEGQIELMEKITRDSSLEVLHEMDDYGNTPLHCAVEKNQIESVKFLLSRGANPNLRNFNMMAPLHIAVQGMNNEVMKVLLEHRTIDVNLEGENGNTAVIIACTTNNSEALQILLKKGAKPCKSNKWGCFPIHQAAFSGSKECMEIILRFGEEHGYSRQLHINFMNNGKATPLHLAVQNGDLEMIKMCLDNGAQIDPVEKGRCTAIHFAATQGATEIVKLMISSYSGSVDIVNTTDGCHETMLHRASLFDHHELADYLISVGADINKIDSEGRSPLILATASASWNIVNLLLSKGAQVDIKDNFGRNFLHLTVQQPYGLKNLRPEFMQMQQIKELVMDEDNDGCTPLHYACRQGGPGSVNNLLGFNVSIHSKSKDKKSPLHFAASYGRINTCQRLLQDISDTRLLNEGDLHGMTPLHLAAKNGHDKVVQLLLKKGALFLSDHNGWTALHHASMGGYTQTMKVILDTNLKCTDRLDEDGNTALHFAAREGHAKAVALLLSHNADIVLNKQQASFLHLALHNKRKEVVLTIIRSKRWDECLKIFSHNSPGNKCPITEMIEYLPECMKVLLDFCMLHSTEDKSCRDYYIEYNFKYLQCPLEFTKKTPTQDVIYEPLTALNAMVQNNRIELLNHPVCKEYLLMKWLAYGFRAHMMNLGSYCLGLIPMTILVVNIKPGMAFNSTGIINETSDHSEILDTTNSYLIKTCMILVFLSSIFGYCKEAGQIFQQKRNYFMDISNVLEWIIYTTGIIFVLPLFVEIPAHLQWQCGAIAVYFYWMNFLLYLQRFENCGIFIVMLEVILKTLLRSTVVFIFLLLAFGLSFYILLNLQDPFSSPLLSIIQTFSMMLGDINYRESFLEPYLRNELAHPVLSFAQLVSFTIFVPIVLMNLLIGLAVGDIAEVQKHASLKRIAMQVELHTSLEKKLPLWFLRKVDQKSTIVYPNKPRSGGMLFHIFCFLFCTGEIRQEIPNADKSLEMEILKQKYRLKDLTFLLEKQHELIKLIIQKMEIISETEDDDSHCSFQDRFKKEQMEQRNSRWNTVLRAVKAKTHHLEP

## O=C(O)CN(CC(=O)O)c1ccccc1OCCOc1ccccc1N(CC(=O)O)CC(=O)O [BAPTA]
[1]; A784168 2 μM, BAPTA 30 μM, versus vehicle
  Effect on ultrasound responses of hsTRPA1-expressing neurons (GCaMP6f): blocked neuronal responses to ultrasound

## CC(=O)O[C@H]1C(=O)[C@@]2(C)[C@H]([C@H](OC(=O)c3ccccc3)[C@]3(O)C[C@H](OC(=O)[C@H](O)[C@@H](NC(=O)c4ccccc4)c4ccccc4)C(C)=C1C3(C)C)[C@]1(OC(C)=O)CO[C@@H]1C[C@@H]2O [Taxol, paclitaxel]
hsTRPA1 [2]
  Effect on AITC-triggered responses of hsTRPA1-expressing HEK cells: significantly reduced
hsTRPA1 [3]
  Effect on ultrasound responses of hsTRPA1-expressing HEK cells (GCaMP6f peak amplitude): no significant effect

## C=C1[C@@H](C)[C@H]2[C@H](Cc3ccccc3)NC(=O)[C@]23[C@H](OC(C)=O)/C=C/[C@@](C)(O)C(=O)[C@@H](C)C/C=C/[C@H]3[C@@H]1O [cytochalasin D]
hsTRPA1 [2]
  Effect on AITC-triggered responses of hsTRPA1-expressing HEK cells: not to be altered
hsTRPA1 [3]
  Effect on ultrasound responses of hsTRPA1-expressing HEK cells (GCaMP6f peak amplitude): reduced the ultrasound responses

## C/C1=C\[C@H](C)C[C@H](C)OC(=O)C[C@H](c2ccc(O)cc2)NC(=O)[C@@H](Cc2c(Br)[nH]c3ccccc23)N(C)C(=O)[C@H](C)NC(=O)[C@@H](C)C1 [jasplakinolide]
hsTRPA1 [2]
  Effect on AITC-triggered responses of hsTRPA1-expressing HEK cells: significantly reduced

## C/C1=C/C(=O)O[C@@H]2C[C@@H](CC[C@H](C)/C=C\C=C\CC1)O[C@@](O)([C@@H]1CSC(=O)N1)C2 [latrunculin A]
hsTRPA1 [2]
  Effect on AITC-triggered responses of hsTRPA1-expressing HEK cells: significantly reduced
hsTRPA1 [3]
  Effect on ultrasound responses of hsTRPA1-expressing HEK cells (GCaMP6f peak amplitude): reduced the ultrasound responses

## COC(=O)Nc1nc2ccc(C(=O)c3cccs3)cc2[nH]1 [nocodazole]
hsTRPA1 [2]
  Effect on AITC-triggered responses of hsTRPA1-expressing HEK cells: not to be altered
hsTRPA1 [3]
  Effect on ultrasound responses of hsTRPA1-expressing HEK cells (GCaMP6f peak amplitude): no significant effect

## NC1=N[C@H](O)[C@H]2[C@H]3O[C@]4(O)O[C@@H]([C@@H](O)[C@@]2(N1)[C@@H]4O)[C@]3(O)CO [tetrodotoxin]
[1]
  Effect on ultrasound responses of hsTRPA1-expressing neurons (GCaMP6f): partially blocked
  Effect on ultrasound-evoked activity of control (Cre) neurons: completely abolishing responses

## mouse homolog: mouse TRPA1 (Mus musculus; RefSeq NM_177781)
[4]
  Response to ultrasound stimulation (cells activated, GCaMP6f): only a third as responsive as hsTRPA1

## mouse-Piezol: mouse Piezo1 channel expressed in HEK cells
[4]
  Response to ultrasound stimulation (cells activated, GCaMP6f): not

B1: human-TRPV1: human TRPV1 channel expressed in HEK cells (protein, UniProt Q8NER1 1-839, looked up)
Transient receptor potential …: MKKWSSTDLGAAADPLQKDTCPDPLDGDPNSRPPPAKPQLSTAKSRTRLFGKGDSEEAFPVDCPHEEGELDSCPTITVSPVITIQRPGDGPTGARLLSQDSVAASTEKTLRLYDRRSIFEAVAQNNCQDLESLLLFLQKSKKHLTDNEFKDPETGKTCLLKAMLNLHDGQNTTIPLLLEIARQTDSLKELVNASYTDSYYKGQTALHIAIERRNMALVTLLVENGADVQAAAHGDFFKKTKGRPGFYFGELPLSLAACTNQLGIVKFLLQNSWQTADISARDSVGNTVLHALVEVADNTADNTKFVTSMYNEILMLGAKLHPTLKLEELTNKKGMTPLALAAGTGKIGVLAYILQREIQEPECRHLSRKFTEWAYGPVHSSLYDLSCIDTCEKNSVLEVIAYSSSETPNRHDMLLVEPLNRLLQDKWDRFVKRIFYFNFLVYCLYMIIFTMAAYYRPVDGLPPFKMEKTGDYFRVTGEILSVLGGVYFFFRGIQYFLQRRPSMKTLFVDSYSEMLFFLQSLFMLATVVLYFSHLKEYVASMVFSLALGWTNMLYYTRGFQQMGIYAVMIEKMILRDLCRFMFVYIVFLFGFSTAVVTLIEDGKNDSLPSESTSHRWRGPACRPPDSSYNSLYSTCLELFKFTIGMGDLEFTENYDFKAVFIILLLAYVILTYILLLNMLIALMGETVNKIAQESKNIWKLQRAITILDTEKSFLKCMRKAFRSGKLLQVGYTPDGKDDYRWCFRVDEVNWTTWNTNVGIINEDPGNCEGVKRTLSFSLRSSRVSGRHWKNFALVPLLREASARDRQSAQPEEVYLRQFSGSLKPEDAEVFKSPAASGEK
[4]
  Response to ultrasound stimulation (cells activated, GCaMP6f): not
